Here are results for nine molecules from ChEMBL document CHEMBL1201862, “PubChem BioAssay data set” (2004).

Counter-ions that a name gives are not always drawn.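 Briefly, cells in 96-well plates were exposed to five compound concentrations for 48 h, and endpoints were estimated by linear interpolation. GI50 marks 50% less growth.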 Calls of active or inactive are those of the source. Cut-off read from the data, not from the text of the source: active = GI50 up to about 1.1 µM and inactive = higher.

Among the test systems are ACHN; EKVX; HCT-116; HCT-15; MDA-MB-231; Malme-3M; NCI-H522; OVCAR-3; OVCAR-5; PC-3; SK-MEL-28; SNB-19; SNB-75; TK-10; U-251; UACC-257; UACC-62; UO-31; MDA-N.
What all share (test): NCI anticancer screen, dose series, 48 h

Regarding `Clc1cc(OCc2nn3c(Cc4ccccc4)nnc3s2)ccc1OCc1nn2c(Cc3ccccc3)nnc2s1`, the GI50 is 24.2 µM (inactive) in the assay on ACHN; 17.1 µM (inactive) with EKVX; 53.5 µM (inactive) with HCT-116; 47.8 µM in the assay with HCT-15; 18.5 µM (inactive) in the assay on MDA-MB-231; 37.5 µM (inactive) in the assay on Malme-3M. Besides, the GI50 was 50.1 µM (inactive) in the assay on NCI-H522; 29.9 µM (inactive) with OVCAR-3; 51.5 µM (inactive) in the assay on OVCAR-5; 48.4 µM (inactive) in the assay with PC-3; 42.2 µM (inactive) in the assay with SK-MEL-28; 24.6 µM (inactive) in the assay with SNB-19. Moreover, the GI50 in the assay on SNB-75 is 15.6 µM (inactive); in the assay with TK-10 it was 29.4 µM (inactive); in the assay on U-251 it was 21.6 µM (inactive); with UACC-257 it was > 100 µM (inactive); in the assay with UACC-62, 40.6 µM (inactive); in the assay with UO-31, 39.4 µM (inactive).

As to `CN(C)CCC=C1c2ccccc2C=Cc2ccccc21` [CYCLOBENZAPRINE HYDROCHLORIDE], the GI50 in the assay with ACHN is 17.2 µM (inactive); with EKVX, 10.9 µM (inactive); in the assay on HCT-116, 15 µM (inactive); in the assay with HCT-15, 17.7 µM; in the assay with MDA-MB-231 it was 17.3 µM (inactive); in the assay with Malme-3M, 16.9 µM (inactive). In addition, the GI50 was 17.9 µM (inactive) in the assay with NCI-H522; 15.5 µM (inactive) with OVCAR-3; 15 µM (inactive) in the assay with OVCAR-5; 16.6 µM (inactive) with PC-3; 16.1 µM (inactive) in the assay with SK-MEL-28; 19.8 µM (inactive) with SNB-19. Also, the GI50 was 14.7 µM (inactive) in the assay with SNB-75; 16.2 µM (inactive) in the assay with TK-10; 16.3 µM (inactive) in the assay with U-251; 14.8 µM (inactive) in the assay on UACC-257; 16.6 µM (inactive) in the assay with UACC-62; 15.8 µM (inactive) in the assay with UO-31.

Take `Cn1nc(S(N)(=O)=O)s/c1=N/S(=O)(=O)c1ccc(N)cc1`: the GI50 was > 100 µM (inactive) with ACHN; > 100 µM (inactive) with EKVX; above 100 µM in the assay with HCT-15; > 100 µM (inactive) with MDA-MB-231; > 100 µM (inactive) in the assay on Malme-3M; > 100 µM (inactive) with OVCAR-3. The GI50 in the assay with OVCAR-5, in the assay on PC-3, with SK-MEL-28, with SNB-19, in the assay on SNB-75 and in the assay with TK-10 was > 100 µM (inactive) throughout. In addition, the GI50 in the assay on U-251, with UACC-62 and with UO-31 was > 100 µM (inactive) in each case.

Take `c1ccc(-c2[nH]c(-c3ccccc3)c(-c3cnccn3)c2-c2cnccn2)cc1`: the GI50 in the assay with ACHN was > 100 µM (inactive); in the assay with EKVX, > 100 µM (inactive); with HCT-116, > 100 µM (inactive); with HCT-15 it was above 100 µM; in the assay on Malme-3M, > 100 µM (inactive); in the assay on NCI-H522, > 100 µM (inactive). Moreover, the GI50 in the assay on OVCAR-3 was > 100 µM (inactive); with OVCAR-5, > 100 µM (inactive); with SK-MEL-28, > 100 µM (inactive); in the assay with SNB-19, > 100 µM (inactive); in the assay with SNB-75, 31.9 µM (inactive); in the assay with TK-10, > 100 µM (inactive). Besides, the GI50 in the assay on U-251, in the assay on UACC-257, with UACC-62 and in the assay on UO-31 was > 100 µM (inactive) throughout.

As to `CN(C)NC1=NS(=O)(=O)c2cc3c(=O)n(C)[nH]c3cc2S1`, the GI50 was > 10 µM (inactive) in the assay with ACHN; > 10 µM (inactive) with EKVX; > 10 µM (inactive) in the assay on HCT-116; above 10 µM in the assay on HCT-15; > 10 µM (inactive) in the assay with MDA-N; > 10 µM (inactive) in the assay on Malme-3M. Besides, the GI50 with NCI-H522, in the assay on OVCAR-3, with OVCAR-5, in the assay on PC-3, with SK-MEL-28 and with SNB-19 was > 10 µM (inactive) each time. In addition, the GI50 in the assay on SNB-75, in the assay with TK-10, in the assay on U-251, in the assay with UACC-257 and with UO-31 was > 10 µM (inactive) each time.

Turning to `COc1ccc2nc3n(c2c1)C(c1c(F)cccc1Cl)SC3` (configuration not stated), the GI50 is > 100 µM (inactive) in the assay with ACHN; > 100 µM (inactive) in the assay on EKVX; > 100 µM (inactive) in the assay on HCT-116; above 100 µM with HCT-15; > 100 µM (inactive) with MDA-N; > 100 µM (inactive) in the assay with OVCAR-3. For the same molecule, the GI50 in the assay on OVCAR-5, in the assay on PC-3, in the assay with SK-MEL-28, in the assay on SNB-19, in the assay with SNB-75 and with TK-10 was > 100 µM (inactive) each time. The GI50 in the assay with U-251, in the assay with UACC-257, in the assay with UACC-62 and in the assay with UO-31 was > 100 µM (inactive) throughout.

Take `COc1cc(COC(=O)N[C@H](C(=O)O)C(C)(C)C)c([N+](=O)[O-])cc1OC`: the GI50 was > 100 µM (inactive) with ACHN; > 100 µM (inactive) in the assay on EKVX; > 100 µM (inactive) in the assay with HCT-116; above 100 µM with HCT-15; > 100 µM (inactive) with MDA-N; > 100 µM (inactive) in the assay on Malme-3M. The GI50 with OVCAR-3, in the assay on OVCAR-5, in the assay with PC-3, in the assay on SK-MEL-28, in the assay on SNB-19 and in the assay with SNB-75 was > 100 µM (inactive) throughout. Besides, the GI50 in the assay with TK-10, in the assay with U-251, in the assay on UACC-257, with UACC-62 and with UO-31 was > 100 µM (inactive) in each case.

As for `Cc1[nH]nc(C(=O)N/N=C/c2ccccc2Cl)c1/N=N\N(C)C`, the GI50 was > 54.6 µM (inactive) in the assay on ACHN; 12.4 µM (inactive) in the assay on EKVX; 4.05 µM (inactive) in the assay with HCT-116; above 100 µM in the assay with HCT-15; > 43.5 µM (inactive) with MDA-MB-231; > 39.4 µM (inactive) in the assay with Malme-3M. Also, the GI50 was > 61.4 µM (inactive) with NCI-H522; 20.8 µM (inactive) with OVCAR-3; 18 µM (inactive) in the assay on OVCAR-5; 5.7 µM (inactive) in the assay with PC-3; > 100 µM (inactive) with SK-MEL-28; > 100 µM (inactive) in the assay with SNB-19. The GI50 with SNB-75 was > 31 µM (inactive); with TK-10 it was 56.6 µM (inactive); in the assay with U-251 it was 14.8 µM (inactive); in the assay on UACC-257, > 84.7 µM (inactive); with UACC-62, > 100 µM (inactive); with UO-31, > 57.8 µM (inactive).

For the molecule `CCC(O)c1ccc(/N=C/c2ccccc2O)cc1` (configuration not stated), the GI50 in the assay on ACHN is > 100 µM (inactive); in the assay on EKVX, > 100 µM (inactive); in the assay with HCT-116, 74.1 µM (inactive); with HCT-15, above 100 µM; in the assay on MDA-MB-231, > 100 µM (inactive); with Malme-3M it was > 100 µM (inactive). Also, the GI50 in the assay on NCI-H522, in the assay with OVCAR-3, in the assay on OVCAR-5, in the assay with PC-3, in the assay on SK-MEL-28 and with SNB-19 was > 100 µM (inactive) throughout. For the same molecule, the GI50 in the assay on SNB-75, in the assay with TK-10, in the assay on U-251, in the assay with UACC-62 and in the assay with UO-31 was > 100 µM (inactive) throughout.
